Laboratory results published in patent publication US9174932B2, “CaSR agonists” (AJINOMOTO CO., INC., priority 2008, dated 2015).

What follows are compounds tested against T1, human CaSR (Homo sapiens, UniProt P41180, E1011Q) (assay: Evaluation of CaSR agonistic activity (293E cells transfected with hCaSR, Ca2+ fluorescent indicator, FLIPR)). Conditions: 293E cells expressing human CaSR; concentration giving activation rate 50%.
T1 construct: expressed in transfected cells; host or cells: 293E cells (HEK293 expressing EBNA1, ATCC CRL-10852), transient transfection of hCaSR/pcDNA3.1
T1 sequence (P41180 20-1078 E1011Q): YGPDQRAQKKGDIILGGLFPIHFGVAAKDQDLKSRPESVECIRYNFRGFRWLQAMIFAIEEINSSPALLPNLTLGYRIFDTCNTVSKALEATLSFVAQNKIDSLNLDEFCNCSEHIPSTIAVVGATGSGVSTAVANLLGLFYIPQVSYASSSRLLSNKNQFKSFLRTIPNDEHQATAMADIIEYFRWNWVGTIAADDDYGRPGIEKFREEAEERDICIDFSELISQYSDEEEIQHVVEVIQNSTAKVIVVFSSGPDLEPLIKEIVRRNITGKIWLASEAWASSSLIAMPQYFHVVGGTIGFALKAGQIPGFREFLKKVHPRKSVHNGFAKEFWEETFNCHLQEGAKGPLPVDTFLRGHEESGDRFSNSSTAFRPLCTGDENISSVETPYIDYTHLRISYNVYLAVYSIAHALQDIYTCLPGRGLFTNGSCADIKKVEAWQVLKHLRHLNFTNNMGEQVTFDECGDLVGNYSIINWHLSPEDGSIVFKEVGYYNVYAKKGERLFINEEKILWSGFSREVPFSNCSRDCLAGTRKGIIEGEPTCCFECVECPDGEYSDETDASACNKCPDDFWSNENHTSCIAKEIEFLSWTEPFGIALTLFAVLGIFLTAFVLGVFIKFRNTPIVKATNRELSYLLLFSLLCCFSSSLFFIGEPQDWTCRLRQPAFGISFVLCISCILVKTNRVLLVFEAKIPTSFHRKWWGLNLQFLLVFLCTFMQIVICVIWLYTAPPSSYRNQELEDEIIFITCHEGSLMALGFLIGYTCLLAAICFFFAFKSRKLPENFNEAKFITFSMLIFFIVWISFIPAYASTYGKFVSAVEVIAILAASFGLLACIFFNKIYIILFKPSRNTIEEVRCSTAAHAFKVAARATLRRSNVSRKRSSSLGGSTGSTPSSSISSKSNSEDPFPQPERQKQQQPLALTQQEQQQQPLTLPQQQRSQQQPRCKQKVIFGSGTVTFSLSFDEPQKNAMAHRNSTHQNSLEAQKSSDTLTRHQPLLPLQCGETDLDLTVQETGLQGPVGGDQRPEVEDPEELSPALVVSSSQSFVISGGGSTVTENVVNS
Assay type: cell-based
Method: 293E cells (HEK293 cell expressing EBNA1, ATCC No. CRL-10852) were cultured in DMEM containing 10% fetal bovine serum (Dulbecco's modified Eagle medium containing […] Glucose, by NACALAI TESQUE, INC.), in the presence of 250 μg/mL of G418. The cells were spread on a petri dish of 10 cm diameter in 1.8×10^6 cells/15 mL. After leaving them in the CO2 incubator (5% CO2, 37° C.) for 24 hours, plasmid expressing human CaSR: hCaSR/pcDNA3.1 was transfected with a transfection reagent: Mirus TransIT 293 (by Takara Bio Inc.). After leaving it in the CO2 incubator for 24 hours, the cells were collected by DMEM containing 10% fetal bovine serum and seeded on poly-D-lysine coat 384 well plate (by Falcon) in 15,000 cells/well. After leaving them in the CO2 incubator for 24 hours, the medium was removed. Then, 50 μL/well of Ca^2+ fluorescent indicator: Calcium 4 Assay Kit (by Molecular Devices) that was dissolved in an assay buffer (146 mM NaCl, 5 mM KCl, 1 mM MgSO4, 1 mg/mL Glucose, 20 mM HEPES (pH 7.2), 1.5 mM CaCl2) was added thereto, and left at 37° C. for 1 hour and at room temperature for 30 minutes to absorb the fluorescent indicator. The 384 well plate was transferred to FLIPR (by Molecular Devices). Then, 12.5 μL/well of a compound that was dissolved in a 0.1% BSA containing assay buffer was added thereto, and change in fluorescence intensity was measured for 3 minutes. Meanwhile, Compound No. 20 was purchased from Bachem.
The difference between the maximum value and the minimum value (RFU(Max−Min)) of the fluorescence intensity before and after adding a compound was automatically calculated by FLIPR. RFU(Max−Min) when adding a compound in maximum concentration was defined as 100%; and RFU(Max−Min) when adding DMSO instead of the compound in the same concentration as that of the compound was defined as 0%.

Compound | EC50 [nM]
N[C@@H](CCC(=O)Nc1cc([N+](=O)[O-])cc(S(=O)(=O)O)c1O)C(=O)O [Compound No. 23, N^5-(2-hydroxy-5-nitro-3-sulfophenyl)-L-glutamine] | 890
N[C@@H](CCC(=O)Nc1cc(S(=O)(=O)O)ccc1Cl)C(=O)O [Compound No. 37, N^5-(2-chloro-5-sulfophenyl)-L-glutamine] | 2.9
N[C@@H](CCC(=O)Nc1cccc(C(=O)O)c1O)C(=O)O [Compound No. 15, 3-(L-γ-glutamylamino)-2-hydroxybenzoic acid] | 34
N[C@@H](CCC(=O)Nc1ccc(S(=O)(=O)O)c(Cl)c1)C(=O)O [Compound No. 38, N^5-(3-chloro-4-sulfophenyl)-L-glutamine] | 6700
N[C@@H](CCC(=O)Nc1cc(O)cc(C(=O)O)c1)C(=O)O [Compound No. 30, 5-hydroxy-3-(L-γ-glutamylamino)benzoic acid] | 2900
N[C@@H](CCC(=O)Nc1cccc([N+](=O)[O-])c1)C(=O)O [Compound No. 19, N^5-(3-nitrophenyl)-L-glutamine] | 400
COc1ccc(S(=O)(=O)O)cc1NC(=O)CC[C@H](N)C(=O)O [Compound No. 3, N^5-(2-methoxy-5-sulfophenyl)-L-glutamine] | 560
COc1c(NC(=O)CC[C@H](N)C(=O)O)cccc1C(=O)O [Compound No. 27, 2-methoxy-3-(L-γ-glutamylamino)benzoic acid] | 150
COc1ccc(NC(=O)CC[C@H](N)C(=O)O)cc1S(=O)(=O)O [Compound No. 2, N^5-(4-methoxy-3-sulfophenyl)-L-glutamine] | 2300
N[C@@H](CCC(=O)Nc1cccc(S(=O)(=O)O)c1O)C(=O)O [Compound No. 10, N^5-(2-hydroxy-3-sulfophenyl)-L-glutamine] | 17
N[C@@H](CCC(=O)Nc1ccc(O)c(S(=O)(=O)O)c1)C(=O)O [Compound No. 11, N^5-(4-hydroxy-3-sulfophenyl)-L-glutamine] | 86
N[C@@H](COC(=O)Nc1cc(Cl)cc(S(=O)(=O)O)c1O)C(=O)O [Compound No. 34, sodium 3-{[(2S)-2-amino-2-carboxyethoxycarbonyl]amino}-5-chloro-2-hydroxybenzenesulfonate] | 1.9
Cc1ccc(C(=O)O)cc1NC(=O)CC[C@H](N)C(=O)O [Compound No. 29, 4-methyl-3-(L-γ-glutamylamino)benzoic acid] | 530
COc1c(NC(=O)OC[C@H](N)C(=O)O)cc(Cl)cc1S(=O)(=O)O [Compound No. 36, O-{[(5-chloro-2-methoxy-3-sulfophenyl)amino]carbonyl}-L-serine] | 3500
N[C@@H](CCC(=O)Nc1ccc(Cl)c(S(=O)(=O)O)c1)C(=O)O [Compound No. 9, N^5-(4-chloro-3-sulfophenyl)-L-glutamine] | 270
Cc1ccc(NC(=O)CC[C@H](N)C(=O)O)cc1S(=O)(=O)O [Compound No. 5, N^5-(4-methyl-3-sulfophenyl)-L-glutamine] | 130
N[C@@H](CCC(=O)Nc1cc(S(=O)(=O)O)ccc1O)C(=O)O [Compound No. 8, N^5-(2-hydroxy-5-sulfophenyl)-L-glutamine] | 100
COP(=O)(O)c1cccc(NC(=O)CC[C@H](N)C(=O)O)c1 [Compound No. 17, N^5-{3-[hydroxyl(methoxy)phosphoryl]phenyl}-L-glutamine] | 2000
Cc1c(Cl)cc(NC(=O)CC[C@H](N)C(=O)O)cc1S(=O)(=O)O [Compound No. 21, N^5-(3-chloro-4-methyl-5-sulfophenyl)-L-glutamine] | 5.7

Compound | EC50 [nM]
Cc1c(Cl)cc(S(=O)(=O)O)cc1NC(=O)CC[C@H](N)C(=O)O [Compound No. 22, N^5-(3-chloro-2-methyl-5-sulfophenyl)-L-glutamine] | 1.4
N[C@@H](CCC(=O)Nc1cc(Br)cc(C(=O)O)c1)C(=O)O [Compound No. 16, 3-bromo-5-(L-γ-glutamylamino)benzoic acid] | 48
N[C@@H](COC(=O)Nc1cccc(S(=O)(=O)O)c1)C(=O)O [Compound No. 13, O-{[(3-sulfophenyl)amino]carbonyl}-L-serine] | 72
N[C@@H](CCC(=O)Nc1cccc(P(=O)(O)O)c1)C(=O)O [Compound No. 18, N^5-(3-phosphonophenyl)-L-glutamine] | 530
Cc1c(Cl)cc(NC(=O)OC[C@H](N)C(=O)O)cc1S(=O)(=O)O [Compound No. 33, O-{[(3-chloro-4-methyll-5-sulfophenyl)amino]carbonyl}-L-serine] | 2.1
N[C@@H](CCC(=O)Nc1ccccc1)C(=O)O [Compound No. 20, N-γ-glutamyl-aniline] | 940
Cc1c(Cl)cc(S(=O)(=O)O)cc1NC(=O)OC[C@H](N)C(=O)O [Compound No. 35, O-{[(3-chloro-2-methyl-5-sulfophenyl)amino]carbonyl}-L-serine] | 3.7
N[C@@H](CCC(=O)Nc1cccc(C(=O)O)c1Cl)C(=O)O [Compound No. 25, 2-chloro-3-(L-γ-glutamylamino)benzoic acid] | 970
Cc1c(NC(=O)CC[C@H](N)C(=O)O)cccc1C(=O)O [Compound No. 31, 3-(L-γ-glutamylamino)-2-methyl-benzoic acid] | 3700
N[C@@H](CCC(=O)Nc1cc(Cl)cc(C(=O)O)c1)C(=O)O [Compound No. 32, 5-chloro-3-(L-γ-glutamylamino)benzoic acid] | 8.8
N[C@@H](CCC(=O)Nc1cccc(C(=O)O)c1)C(=O)O [Compound No. 14, 3-(L-γ-glutamylamino)benzoic acid] | 2000
N[C@@H](CCC(=O)Nc1cc(I)ccc1S(=O)(=O)O)C(=O)O [Compound No. 41, N^5-(5-iodo-2-sulfophenyl)-L-glutamine] | 2300
CN(C(=O)CC[C@H](N)C(=O)O)c1cccc(S(=O)(=O)O)c1 [Compound No. 12, N^5-methyl-N^5-(3-sulfophenyl)-L-glutamine] | 200
N[C@@H](CCC(=O)Nc1cc(S(=O)(=O)O)cc([N+](=O)[O-])c1O)C(=O)O [Compound No. 6, N^5-(2-hydroxy-3-nitro-5-sulfophenyl)-L-glutamine] | 2700
N[C@@H](CCC(=O)Nc1cc(C(=O)O)ccc1Cl)C(=O)O [Compound No. 26, 4-chloro-3-(L-γ-glutamylamino)benzoic acid] | 160
N[C@@H](CCC(=O)Nc1ccc(O)c(C(=O)O)c1)C(=O)O [Compound No. 28, 6-hydroxy-3-(L-γ-glutamylamino)benzoic acid] | 330
N[C@@H](CCC(=O)Nc1cc(Cl)cc(C(=O)O)c1Cl)C(=O)O [Compound No. 24, 2,5-dichloro-3-(L-γ-glutamylamino)benzoic acid] | 22
N[C@@H](CCC(=O)Nc1ccc(S(=O)(=O)O)c(I)c1)C(=O)O [Compound No. 40, N^5-(3-iodo-4-sulfophenyl)-L-glutamine] | 7900
Cc1cc(C)c(S(=O)(=O)O)cc1NC(=O)CC[C@H](N)C(=O)O [Compound No. 4, N^5-(2,4-dimethyl-5-sulfophenyl)-L-glutamine] | 59
